Assay results: article PMC7967212, “Vitamin D Compounds PRI-2191 and PRI-2205 Enhance Anastrozole Activity in Human Breast Cancer Models” (International Journal of Molecular Sciences, 2021)

Target: T1, aromatase (CYP19) (Homo sapiens, UniProt P11511)
T1 construct: gene CYP19A1
T1 sequence (P11511 1-503): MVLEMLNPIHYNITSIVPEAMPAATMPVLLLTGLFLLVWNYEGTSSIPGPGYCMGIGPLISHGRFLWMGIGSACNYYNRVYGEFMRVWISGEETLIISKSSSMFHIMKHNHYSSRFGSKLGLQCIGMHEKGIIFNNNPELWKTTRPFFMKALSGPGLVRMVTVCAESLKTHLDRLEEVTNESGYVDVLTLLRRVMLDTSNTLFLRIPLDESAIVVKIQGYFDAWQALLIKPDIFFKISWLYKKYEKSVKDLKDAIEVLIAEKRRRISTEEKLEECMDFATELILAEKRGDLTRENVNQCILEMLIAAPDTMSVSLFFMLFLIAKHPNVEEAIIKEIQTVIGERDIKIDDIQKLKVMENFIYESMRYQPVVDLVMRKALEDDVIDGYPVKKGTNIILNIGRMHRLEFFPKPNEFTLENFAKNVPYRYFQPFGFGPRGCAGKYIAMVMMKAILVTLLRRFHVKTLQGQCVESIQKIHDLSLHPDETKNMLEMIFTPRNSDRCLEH
Experiment: CYP19/MFC High Throughput Inhibitor Screening Kit (Corning No. […]), fluorogenic enzyme inhibition
Assay type: biochemical

IC50: 152 ± 30.5 nM
Compound: C=C1/C(=C\C=C2/CCC[C@]3(C)[C@@H]([C@H](C)CC[C@@H](O)C(C)C)CC[C@@H]23)C[C@@H](O)C[C@@H]1O [PRI-2191]
